{"source": "paper PMC4311625", "about": "“Structural determinants for binding to angiotensin converting enzyme 2 (ACE2) and angiotensin receptors 1 and 2” (Frontiers in Pharmacology, 2015)", "key": {"ACE2 [1]": {"biological_target": "T1, ACE2 (Homo sapiens, UniProt Q9BYF1)", "T1 sequence (Q9BYF1 18-805, species assumed)": "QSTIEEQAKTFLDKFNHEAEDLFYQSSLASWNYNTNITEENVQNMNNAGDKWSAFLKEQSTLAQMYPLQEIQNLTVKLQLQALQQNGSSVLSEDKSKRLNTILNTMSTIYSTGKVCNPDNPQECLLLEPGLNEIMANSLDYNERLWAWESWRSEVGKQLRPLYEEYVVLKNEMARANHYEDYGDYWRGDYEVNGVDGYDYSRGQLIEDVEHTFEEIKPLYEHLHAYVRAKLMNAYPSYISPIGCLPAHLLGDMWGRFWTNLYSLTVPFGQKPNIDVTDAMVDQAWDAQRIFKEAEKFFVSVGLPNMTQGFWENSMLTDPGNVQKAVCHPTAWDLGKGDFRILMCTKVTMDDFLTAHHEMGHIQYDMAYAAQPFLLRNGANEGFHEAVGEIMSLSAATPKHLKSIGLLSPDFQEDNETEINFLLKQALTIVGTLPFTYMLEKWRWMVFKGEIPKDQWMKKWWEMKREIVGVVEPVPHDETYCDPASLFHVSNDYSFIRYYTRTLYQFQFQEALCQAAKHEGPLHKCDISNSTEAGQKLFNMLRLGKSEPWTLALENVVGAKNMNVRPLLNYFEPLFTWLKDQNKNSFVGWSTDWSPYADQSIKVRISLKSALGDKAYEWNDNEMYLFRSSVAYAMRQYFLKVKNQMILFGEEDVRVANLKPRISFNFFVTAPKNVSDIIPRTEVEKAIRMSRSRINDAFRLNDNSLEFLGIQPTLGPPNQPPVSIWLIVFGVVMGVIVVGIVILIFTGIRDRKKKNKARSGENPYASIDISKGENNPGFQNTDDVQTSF", "assay": "ACE2 quenched fluorescence substrate (QFS) inhibition assay", "assay_type": "biochemical", "details": "QFS assay, pH 6.5, 37 °C, 1 h, value ± spread; for Inhibition (%) of ACE2, AngII chimeras, 100 μM: peptide 100 μM", "method": "Angiotensin converting enzyme 2 QFS assays were performed for 1 h in 50 uM QFS, 1 M NaCl, 100 mM Tris-Cl, pH 6.5 at 37∘C on a BMG LabTechnologies (Offenburg, Germany), FLUOStar Optima in a 96 well-plate. Subsequent data analysis determined the inhibition of native AngII, its analogs and C-terminal peptides compared to the ACE2 QFS substrate [MCA-APK(DNP)-OH, [Vickers et al., 2002]]. […] Three controls were included in each ACE2 QFS assay; AngII (100 and 10 μM), IHPF (100 μM) and a known ACE2 inhibitor (1 nM; Millennium Pharmaceuticals, Cambridge, MA, USA). QFS assay results were accepted when ACE2 inhibition by AngII (10 μM) was 80 ± 5%, IHPF was 65 ± –5% and the ([Qian et al., 1999]) ‘Millennium Inhibitor’ was 70 ± –5%. Acceptable coefficients of variation (CV; standard deviation/mean × 100) for sample triplicates were <7%.\nA library of 40 tetrapeptides based on the four C-terminal residues of Ang II (Ile-His-Pro-Phe/IHPF) was generated and screened for ACE2 binding at 100 μM in order to identify key residues of the C-terminus of Ang II involved in binding to the ACE2 active site. […] Several substitutions (Val, Tyr, Ala, Gly, Phe, Trp, Pro, His, Ile, and Leu) were made in order to further probe the highly hydrophobic and cyclic specificity of the C-terminus of Ang II. A β-napthalene amino acid (Nth) derivative was used as a highly hydrophobic non-natural cyclic residue substitute, and Arg and Lys were substituted for histidine at the second position from the N-terminus of the tetrapeptide to determine if positive charge or other structural or positional requirements were important."}, "AT1R": {"biological_target": "T2, AT1R (Rattus norvegicus, UniProt P25095)", "T2 construct": "HA; expressed in transfected cells", "T2 sequence (P25095 1-359)": "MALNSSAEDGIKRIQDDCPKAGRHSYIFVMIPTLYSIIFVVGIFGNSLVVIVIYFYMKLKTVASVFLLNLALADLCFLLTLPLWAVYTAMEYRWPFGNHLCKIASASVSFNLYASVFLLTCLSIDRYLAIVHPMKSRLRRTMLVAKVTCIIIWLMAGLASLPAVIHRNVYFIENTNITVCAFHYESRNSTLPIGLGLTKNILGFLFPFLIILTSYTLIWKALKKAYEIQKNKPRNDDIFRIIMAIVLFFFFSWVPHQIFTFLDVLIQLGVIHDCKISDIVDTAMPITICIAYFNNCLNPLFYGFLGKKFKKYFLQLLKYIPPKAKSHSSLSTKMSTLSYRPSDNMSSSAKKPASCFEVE", "assay": "Whole cell competition binding with [125I]-Ang II, AT1R-transfected HEK-293 cells", "details": "relative binding, displacement of 125I-Ang II in AT1R-transfected HEK-293 cells; 100 nM (Table 6)", "method": "The generation of plasmids expressing HA-tagged versions of the AT1R and AT2R have been previously described [Qian et al. (1999)], [D’Amore et al. (2005)]. HEK-293 cells in 12 well-plates were transfected with either AT1R or AT2R plasmids (0.6 μg/well) using lipofectAMINE (4⋅8 μl/well), as previously described [Thomas et al. (1998)] and stably expressing clones obtained by selection with G418 (1 mg/ml) and limiting dilution."}, "AT2R": {"system": "AT2R", "assay": "Whole cell competition binding with [125I]-Ang II, AT2R-transfected HEK-293 cells", "details": "relative binding, displacement of 125I-Ang II in AT2R-transfected HEK-293 cells; 100 nM (Table 6)", "method": "The generation of plasmids expressing HA-tagged versions of the AT1R and AT2R have been previously described [Qian et al. (1999)], [D’Amore et al. (2005)]. HEK-293 cells in 12 well-plates were transfected with either AT1R or AT2R plasmids (0.6 μg/well) using lipofectAMINE (4⋅8 μl/well), as previously described [Thomas et al. (1998)] and stably expressing clones obtained by selection with G418 (1 mg/ml) and limiting dilution. HEK clones expressing either AT1R or AT2R were plated in 12 well-plates for whole cell competition binding assays using the non-selective Ang II ligand, [^125I]-Ang II and selected concentrations of Ang II, PD123319 (an AT2-selective ligand) and the various β-substituted Ang II peptides. Non-linear regression of the data was achieved using GraphPad Prism (GraphPad Software Inc., San Diego, CA, USA) to determine relative displacement of chimeric Ang II analogs as compared to ^125I-Ang II in either AT1R- or AT2R- transfected HEK-293 cells."}, "ACE2 [2]": {"biological_target": "T1, ACE2", "assay": "LC–MS ACE2 proteolytic cleavage assay", "assay_type": "in vitro ADME", "details": "for Cleavage (%) by ACE2, 10 μM: peptide 10 μM incubated with ACE2 at 37 °C; for Cleavage (%) by ACE2, 10 μM / Cleavage (%) by ACE2, 100 μM: typically 4-5 h (5 h); for Cleavage (%) by ACE2, 100 μM: peptide 100 μM incubated with ACE2 at 37 °C", "method": "The first hour of the incubation was performed in the Fluorostar Optima plate reader in order to confirm previously observed level of inhibition, then for the remaining time the samples were transferred to small microfuge tubes and incubated in a water bath. The extent of ACE2 cleavage was assessed by LC–MS on an Agilent capillary HP1100, MSD VL3000 Ion-Trap system."}}, "note": "Ends that are not written are not given here.", "data": [{"substance": "DRVYIYPβF", "values": [{"measurement": "Inhibition (%) of ACE2, AngII chimeras, 1 μM", "setting": "ACE2 [1]; peptide 1 μM", "value": "–1 ± 6.8%"}, {"measurement": "Inhibition (%) of ACE2, AngII chimeras, 10 μM", "setting": "ACE2 [1]; peptide 10 μM", "value": "completely abolished"}, {"measurement": "Inhibition (%) of ACE2, AngII chimeras, 10 μM", "setting": "ACE2 [1]; peptide 10 μM, listed as DRVYI YPβF", "value": "0 ± 5", "unit": "%"}, {"measurement": "Inhibition (%) of ACE2, AngII chimeras, 100 μM", "setting": "ACE2 [1]", "value": "53 ± 1.9", "unit": "%"}, {"measurement": "AT1R binding (%)", "setting": "AT1R", "value": 30, "unit": "%"}, {"measurement": "AT2R binding (%)", "setting": "AT2R", "value": 25, "unit": "%"}, {"measurement": "Cleavage (%) by ACE2, 10 μM", "setting": "ACE2 [2]; LC–MS", "value": "0 ± 0", "unit": "%"}, {"measurement": "Cleavage (%) by ACE2, 100 μM", "setting": "ACE2 [2]; LC–MS", "value": "complete resistance to proteolytic cleavage"}, {"measurement": "Cleavage (%) by ACE2, 100 μM", "setting": "ACE2 [2]; LC–MS, listed as DRVYI YPβF", "value": "0 ± 0", "unit": "%"}]}, {"substance": "DRVYIYβPF", "values": [{"measurement": "Inhibition (%) of ACE2, AngII chimeras, 1 μM", "setting": "ACE2 [1]; peptide 1 μM", "value": "–4 ± 9.8%"}, {"measurement": "Inhibition (%) of ACE2, AngII chimeras, 10 μM", "setting": "ACE2 [1]; peptide 10 μM", "value": "10 ± 5.8", "unit": "%"}, {"measurement": "Inhibition (%) of ACE2, AngII chimeras, 100 μM", "setting": "ACE2 [1]", "value": "72 ± 1.5", "unit": "%"}, {"measurement": "AT1R binding (%)", "setting": "AT1R", "value": 0, "unit": "%"}, {"measurement": "AT2R binding (%)", "setting": "AT2R", "value": 80, "unit": "%"}, {"measurement": "Cleavage (%) by ACE2, 10 μM", "setting": "ACE2 [2]; LC–MS", "value": "0 ± 0", "unit": "%"}, {"measurement": "Cleavage (%) by ACE2, 100 μM", "setting": "ACE2 [2]; LC–MS", "value": "complete resistance to proteolytic cleavage"}, {"measurement": "Cleavage (%) by ACE2, 100 μM", "setting": "ACE2 [2]; LC–MS, listed as DRVYI YβPF", "value": "0 ± 0", "unit": "%"}]}, {"substance": "DRVYVYPF", "values": [{"measurement": "inhibition at 0.1 µM", "setting": "ACE2 [1]; peptide 0.1 μM, read-out: Inhibition (%) of ACE2, AngII chimeras, 0.1 μM", "value": "31 ± 3.5", "unit": "%"}, {"measurement": "inhibition at 1 µM", "setting": "ACE2 [1]; peptide 1 μM, read-out: Inhibition (%) of ACE2, AngII chimeras, 1 μM", "value": "84 ± 2.7", "unit": "%"}, {"measurement": "inhibition at 10 µM", "setting": "ACE2 [1]; peptide 10 μM, read-out: Inhibition (%) of ACE2, AngII chimeras, 10 μM", "value": "98 ± 0.3", "unit": "%"}, {"measurement": "fold less cleavage by ACE2 compared to native Ang II", "setting": "ACE2 [2]; 10 μM, over 5 h", "value": "approximately 4 fold"}, {"measurement": "Cleavage (%) by ACE2, 1 μM", "setting": "ACE2 [2]; peptide 1 μM incubated with ACE2 at 37 °C, typically 4-5 h, LC–MS", "value": 64, "unit": "%"}, {"measurement": "Cleavage (%) by ACE2, 10 μM", "setting": "ACE2 [2]; LC–MS", "value": "9 ± 0.3", "unit": "%"}]}, {"substance": "DRVYVYPβF", "values": [{"measurement": "Inhibition (%) of ACE2, AngII chimeras, 1 μM", "setting": "ACE2 [1]; peptide 1 μM", "value": "2 ± 3.6", "unit": "%"}, {"measurement": "Inhibition (%) of ACE2, AngII chimeras, 10 μM", "setting": "ACE2 [1]; peptide 10 μM", "value": "15 ± 9", "unit": "%"}, {"measurement": "Inhibition (%) of ACE2, AngII chimeras, 100 μM", "setting": "ACE2 [1]", "value": "59 ± 2.1", "unit": "%"}, {"measurement": "AT1R binding (%)", "setting": "AT1R", "value": 0, "unit": "%"}, {"measurement": "AT2R binding (%)", "setting": "AT2R", "value": 25, "unit": "%"}, {"measurement": "Cleavage (%) by ACE2, 100 μM", "setting": "ACE2 [2]; LC–MS", "value": "complete resistance to proteolytic cleavage"}]}, {"substance": "DRVYVYβPF", "values": [{"measurement": "Inhibition (%) of ACE2, AngII chimeras, 1 μM", "setting": "ACE2 [1]; peptide 1 μM", "value": "0 ± 11.4", "unit": "%"}, {"measurement": "Inhibition (%) of ACE2, AngII chimeras, 10 μM", "setting": "ACE2 [1]; peptide 10 μM", "value": "42 ± 4.4", "unit": "%"}, {"measurement": "Inhibition (%) of ACE2, AngII chimeras, 100 μM", "setting": "ACE2 [1]", "value": "90 ± 0.6", "unit": "%"}, {"measurement": "AT1R binding (%)", "setting": "AT1R", "value": 0, "unit": "%"}, {"measurement": "AT2R binding (%)", "setting": "AT2R", "value": 75, "unit": "%"}, {"measurement": "Cleavage (%) by ACE2, 10 μM", "setting": "ACE2 [2]; LC–MS", "value": "0 ± 0", "unit": "%"}, {"measurement": "Cleavage (%) by ACE2, 100 μM", "setting": "ACE2 [2]; LC–MS", "value": "complete resistance to proteolytic cleavage"}, {"measurement": "Cleavage (%) by ACE2, 100 μM", "setting": "ACE2 [2]; LC–MS, listed as DRVY VYβPF", "value": "0 ± 0", "unit": "%"}]}]}
